Key:
[1] = cited from earlier work
[2] = tested on: tetranor-PGDM amount excreted in the urine; assay: Urinary tetranor-PGDM by HPLC-MS/MS in OVA-induced food allergy model mouse; type: in vivo; details: BALB/c mice sensitized with OVA, drug i.p. every day during OVA oral administration period; cromolyn 300 μg/mouse, DEX 2 mg/kg; n=5
Method: (§1) Model preparation: Wild type BALB/c mice (6-8 weeks old, female) were intraperitoneally sensitized with OVA by administering OVA (50 μg) twice at intervals of two weeks. Two weeks later, OVA (10 mg) was orally administered 10 times in total at intervals of two days. As a control, the mice sensitized with OVA was orally administered with physiological saline 10 times in total at intervals of two days.
Medication treatment: During the period of orally administering OVA to the mice sensitized with OVA in accordance with the aforementioned method, dexamethasone (2 mg/kg) or sodium cromoglycate (300 μg/mouse) were intraperitoneally administered every day. […]
Using the urine sample pretreated, tetranor-PGDM and tetranor-PGEM were measured by a high performance liquid chromatography tandem mass spectrometer (HPLC-MS/MS). […] As a quantitative method, MRM (Multiple Reaction Monitoring) method was employed. Tetranor-PGDM (mass number 328) and tetranor-PGEM (mass number 328) were detected by using product ion m/z 309, which was produced by further decomposing the produced precursor ion m/z (mass number÷charge) 327 by collision induced dissociation (CID). Internal standards, tetranor-PGDM-d6 (mass number 334) and tetranor-PGEM-d6 (mass number 334), were detected by using product ion m/z 315, which was produced by further decomposing precursor ion m/z (mass number÷charge) 333 by CID. […]

[3] = tested on: food allergy symptoms induced by OVA; assay: Frequency of diarrhea in OVA-induced food allergy model mouse; type: in vivo; details: BALB/c mice sensitized with OVA, drug i.p. every day during OVA oral administration period; cromolyn 300 μg/mouse, DEX 2 mg/kg; n=5
Method: as §1
Medication treatment: During the period of orally administering OVA to the mice sensitized with OVA in accordance with the aforementioned method, dexamethasone (2 mg/kg) or sodium cromoglycate (300 μg/mouse) were intraperitoneally administered every day.
Symptom evaluation: The number of mice which developed diarrhea within one hour after the OVA administration is determined in percentage.

[4] = cited from earlier work; remark: listed apart in the source

NCCc1c[nH]cn1 [histamine]
time in which histamine in the blood disappears [1]: 15 min

O=C(O)c1cc(=O)c2c(OCC(O)COc3cccc4oc(C(=O)O)cc(=O)c34)cccc2o1 [cromolyn, sodium cromoglycate]
tetranor-PGDM amount excreted in the urine [2]: significantly decreased
food allergy symptoms induced by OVA (frequency of diarrhea) [3]: suppressed food allergy symptoms

CCCCC[C@H](O)/C=C/[C@H]1C(=O)C[C@H](O)[C@@H]1C/C=C\CCCC(=O)O [PGD2, prostaglandin D2]
time in which PGD2 is metabolized in vivo [4]: 50 s

Reference: patent US20180136241A1, “METHOD FOR EXAMINING FOOD ALLERGY AND EXAMINATION KIT” (The University of Tokyo, priority 2014, published 2018)
